This is an account of results in patent US7928140B2, “Benzothiazole PI3 kinase modulators for cancer treatment” (Amgen Inc., priority 2007, dated 2011).

The structures appear in SMILES notation. Like-named read-outs stand apart in the source and are kept apart here.

Assay [1] deals with phosphorylation of Serine 473 in Akt, HCT 116 human colon carcinoma cells. Kind of assay: Cell-based phospho-AKT Ser473 assay (MSD sandwich immunoassay, IGF-1 stimulated). The settings on record: Homo sapiens. In short, it runs like this:
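HCT116 cells, 16,000/well and plated overnight, were pre-treated with serially diluted compound for 2 h at 37 °C, then stimulated with IGF-1 at 100 ng/ml for 15 min. Lysates were assayed for Akt pSer473 by MSD sandwich electrochemiluminescence, and IC50 was derived from dose-response data.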

Assay [2] concerns the target T1, PI3K α (Homo sapiens, UniProt P42336).
T1 construct: Full length p110 subunits of PI3K α, β and δ, N-terminally labeled with polyHis tag; polyHis (N); made in house; host or cells: Sf9 insect cells (baculovirus)
Kind of assay: In vitro PI3 kinase enzyme assay (alpha), ATP loss, bioluminescence.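 Further: purified p110α/p85 heterodimer acting on PtdIns(4,5)P2 at room temperature, remaining ATP read by luminescence, inhibition scaled between compound-free wells with and without enzyme.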 Format: biochemical. The settings on record: read-out: PI3Kα ATP loss IC50.

Assay [3] concerns the target T2, PI3K β (Homo sapiens, UniProt P42338).
T2 construct: Full length p110 subunits of PI3K α, β and δ, N-terminally labeled with polyHis tag; polyHis (N); made in house; host or cells: Sf9 insect cells (baculovirus)
Kind of assay: In vitro PI3 kinase enzyme assay (beta), ATP loss, bioluminescence.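 Further: purified p110β/p85 heterodimer with PtdIns(4,5)P2 as acceptor, incubated at room temperature, leftover ATP read by luminescence, inhibition scaled to compound-free wells with and without enzyme.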 The format is biochemical. The settings on record: read-out: PI3Kβ ATP loss IC50.
Procedure: Full length p110 subunits of PI3K α, β and δ, N-terminally labeled with polyHis tag, were co-expressed with p85 in baculovirus expression vectors in sf9 insect cells. P110/p85 heterodimers were purified by sequential Ni-NTA, Q-HP, and Superdex-100 chromatography. Purified α, β and δ isozymes were stored at −20° C. in 20 mM Tris, pH 8, 0.2M NaCl, 50% glycerol, 5 mM DTT, 2 mM Na cholate.
PI3K enzyme assays (alpha, beta, delta and gamma) were performed in 25 mL with the above final concentrations of components in white polypropylene plates (Costar catalogue #3355). Phosphatidyl inositol phosphoacceptor, PtdIns(4,5)P2 (eg. P4508) was obtained from Echelon Biosciences. The ATPase activity of the alpha and gamma isozymes was not greatly stimulated by PtdIns(4,5)P2 under these conditions and was therefore omitted from the assay of these isozymes. Test compounds were dissolved in DMSO and diluted with three-fold serial dilutions. The compound in DMSO (1 μL) was added per test well, and the inhibition relative to reactions containing no compound, with and without enzyme was determined. After assay incubation at RT, the reaction was stopped and residual ATP determined by addition of an equal volume of a commercial ATP bioluminescence kit (Perkin Elmer EasyLite) according to the manufacturer's instructions, and detected using an Analyst GT luminometer.

The mark [4] stands for this setting: HCT-116, HCT 116 cells, read-out: HCT 116 pAKT IC50.

T1 sequence (P42336 whole entry, species assumed): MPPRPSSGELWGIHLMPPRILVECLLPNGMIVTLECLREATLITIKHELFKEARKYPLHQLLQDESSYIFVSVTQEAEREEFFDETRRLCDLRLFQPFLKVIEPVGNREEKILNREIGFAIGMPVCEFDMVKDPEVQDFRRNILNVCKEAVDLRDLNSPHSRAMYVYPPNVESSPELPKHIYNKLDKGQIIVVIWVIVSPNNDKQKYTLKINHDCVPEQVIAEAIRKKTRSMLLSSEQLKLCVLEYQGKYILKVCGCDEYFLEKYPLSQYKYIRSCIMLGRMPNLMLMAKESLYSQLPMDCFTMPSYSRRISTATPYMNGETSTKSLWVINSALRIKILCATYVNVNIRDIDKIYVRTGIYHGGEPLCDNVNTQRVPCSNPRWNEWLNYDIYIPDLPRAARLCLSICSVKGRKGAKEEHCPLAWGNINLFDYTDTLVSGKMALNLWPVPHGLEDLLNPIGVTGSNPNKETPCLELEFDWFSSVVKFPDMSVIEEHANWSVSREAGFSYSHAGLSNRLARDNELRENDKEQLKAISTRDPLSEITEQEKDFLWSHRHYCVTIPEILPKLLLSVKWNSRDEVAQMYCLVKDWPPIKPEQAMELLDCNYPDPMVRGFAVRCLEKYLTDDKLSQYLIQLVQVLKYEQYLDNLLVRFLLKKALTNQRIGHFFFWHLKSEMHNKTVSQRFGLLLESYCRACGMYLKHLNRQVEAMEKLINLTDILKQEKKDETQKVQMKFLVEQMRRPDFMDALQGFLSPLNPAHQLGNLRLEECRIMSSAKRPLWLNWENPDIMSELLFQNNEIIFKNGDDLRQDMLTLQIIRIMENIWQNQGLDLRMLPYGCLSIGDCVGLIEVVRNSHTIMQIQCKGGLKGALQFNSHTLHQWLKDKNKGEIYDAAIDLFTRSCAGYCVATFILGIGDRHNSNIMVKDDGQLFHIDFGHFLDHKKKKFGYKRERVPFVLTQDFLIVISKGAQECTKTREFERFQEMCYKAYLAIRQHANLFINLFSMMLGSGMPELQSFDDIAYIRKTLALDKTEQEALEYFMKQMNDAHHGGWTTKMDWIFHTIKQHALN
T1 sequence (P27986 whole entry partner, species assumed): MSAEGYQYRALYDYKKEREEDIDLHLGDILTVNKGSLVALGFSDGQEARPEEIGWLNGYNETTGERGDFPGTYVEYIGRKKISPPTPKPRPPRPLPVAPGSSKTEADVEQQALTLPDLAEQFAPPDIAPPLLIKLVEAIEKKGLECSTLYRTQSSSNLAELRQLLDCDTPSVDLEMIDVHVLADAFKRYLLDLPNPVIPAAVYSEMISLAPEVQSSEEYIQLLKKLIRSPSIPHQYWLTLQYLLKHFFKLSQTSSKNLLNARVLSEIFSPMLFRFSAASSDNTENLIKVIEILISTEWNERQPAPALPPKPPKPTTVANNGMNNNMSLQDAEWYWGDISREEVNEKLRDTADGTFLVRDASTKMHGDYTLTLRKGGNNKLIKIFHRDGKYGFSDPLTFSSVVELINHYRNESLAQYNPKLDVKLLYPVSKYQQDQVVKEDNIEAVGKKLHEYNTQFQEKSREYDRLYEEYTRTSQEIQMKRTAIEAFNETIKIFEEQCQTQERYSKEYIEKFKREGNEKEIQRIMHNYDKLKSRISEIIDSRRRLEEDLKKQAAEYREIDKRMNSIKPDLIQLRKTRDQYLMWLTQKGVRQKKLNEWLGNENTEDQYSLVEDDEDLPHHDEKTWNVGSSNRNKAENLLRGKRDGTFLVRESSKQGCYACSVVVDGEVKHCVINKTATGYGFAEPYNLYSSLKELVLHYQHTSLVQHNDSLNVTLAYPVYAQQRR
T2 sequence (P42338 whole entry): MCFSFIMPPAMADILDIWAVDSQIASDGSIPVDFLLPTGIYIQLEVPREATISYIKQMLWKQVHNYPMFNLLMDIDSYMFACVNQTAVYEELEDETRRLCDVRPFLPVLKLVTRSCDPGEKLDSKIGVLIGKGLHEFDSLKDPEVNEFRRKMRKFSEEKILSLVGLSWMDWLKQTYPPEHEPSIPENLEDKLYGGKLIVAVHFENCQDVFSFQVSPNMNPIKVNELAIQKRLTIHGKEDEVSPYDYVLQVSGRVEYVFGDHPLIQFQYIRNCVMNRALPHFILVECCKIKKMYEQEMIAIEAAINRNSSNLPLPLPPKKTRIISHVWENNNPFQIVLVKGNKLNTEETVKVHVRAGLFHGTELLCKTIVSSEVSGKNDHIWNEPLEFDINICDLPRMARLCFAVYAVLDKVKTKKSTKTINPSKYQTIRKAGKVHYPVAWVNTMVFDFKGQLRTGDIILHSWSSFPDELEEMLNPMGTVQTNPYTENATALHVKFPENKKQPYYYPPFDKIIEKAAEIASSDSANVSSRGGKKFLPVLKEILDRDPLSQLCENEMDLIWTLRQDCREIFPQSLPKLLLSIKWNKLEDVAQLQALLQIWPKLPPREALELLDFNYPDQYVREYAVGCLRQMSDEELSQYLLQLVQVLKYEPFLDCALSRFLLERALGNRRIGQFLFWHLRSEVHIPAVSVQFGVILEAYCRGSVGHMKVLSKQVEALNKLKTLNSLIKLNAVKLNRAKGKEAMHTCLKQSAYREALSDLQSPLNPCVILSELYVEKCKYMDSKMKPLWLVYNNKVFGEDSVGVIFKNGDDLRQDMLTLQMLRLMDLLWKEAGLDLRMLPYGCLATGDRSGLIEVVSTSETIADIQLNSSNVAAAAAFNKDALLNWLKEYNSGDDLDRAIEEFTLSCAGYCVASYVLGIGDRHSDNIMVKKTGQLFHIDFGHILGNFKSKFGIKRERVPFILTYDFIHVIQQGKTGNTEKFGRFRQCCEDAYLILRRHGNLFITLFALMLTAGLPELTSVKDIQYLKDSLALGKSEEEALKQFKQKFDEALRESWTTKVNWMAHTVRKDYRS
T2 sequence (P27986 whole entry partner): as the sequence (P27986 whole entry partner, species assumed) above

Take `CC(=O)Nc1nc2ccc(-c3ccnc(NS(=O)(=O)c4ccc(C)cc4)c3)cc2s1` [Example 216, N-(6-(2-(4-methylphenylsulfonamido)pyridin-4-yl)benzo[d]thiazol-2-yl)acetamide]: the results for the IC50 in assay [1] (setting [4]), in assay [2] and in assay [3] were 79.4 nM, 35.1 nM and 120 nM, respectively.
For `CC(=O)Nc1nc2ccc(-c3cnc(Cl)c(NS(=O)(=O)c4ccc(Cl)s4)c3)cc2s1` [Example 193, N-(6-(6-chloro-5-(2-chlorothiophene-5-sulfonamido)pyridin-3-yl)benzo[d]thiazol-2-yl)acetamide] the same measures were 16.8 nM, 6.8 nM and 9.6 nM.
For `CC(=O)Nc1nc2ccc(-c3cnc(C)c(NS(=O)(=O)c4ccc(C(C)(C)C)cc4)c3)cc2s1` [Example 114, N-(6-(5-(((4-tert-butylphenyl)sulfonyl)amino)-6-methyl-3-pyridinyl)-1,3-benzothiazol-2-yl)acetamide] the same measures were 14.4 nM, 7 nM and 8.9 nM.
Regarding `CC(=O)Nc1nc2ccc(-c3ccnc(OCCc4ccccc4)n3)cc2s1` [Example 7, N-(6-(2-(2-phenylethoxy)-4-pyrimidinyl)-1,3-benzothiazol-2-yl)acetamide], the 50% inhibitory concentration (IC50) in assay [1] (HCT-116, read-out: HCT 116 pAKT IC50) is > 25000 nM; in assay [2], 226 nM; in assay [3], 2610 nM.
For the molecule `CC(=O)c1ccc(S(=O)(=O)Nc2cc(-c3ccc4nc(N)sc4c3)cnc2Cl)cc1` [Example 325, 4-acetyl-N-(5-(2-amino-1,3-benzothiazol-6-yl)-2-chloro-3-pyridinyl)benzenesulfonamide], the figures for the concentration for half-maximal inhibition (IC50) in assay [1] (setting [4]), in assay [2] and in assay [3] were 468 nM, 18 nM and 20.6 nM, respectively.
The like results for `COc1ccc(S(=O)(=O)N(C)c2nccc(-c3ccc4nc(NC(C)=O)sc4c3)n2)cc1` [Example 88, N-(6-(2-(4-Methoxy-N-methylphenylsulfonamido)pyrimidin-4-yl)benzo[d]thiazol-2-yl)acetamide] were, in that order, 68.8 nM, 39.3 nM and 79.1 nM.
The like results for `CC(=O)Nc1nc2ccc(-c3ccnc(OCc4cccc(C)c4)n3)cc2s1` [Example 107, N-(6-(2-((3-methylbenzyl)oxy)-4-pyrimidinyl)-1,3-benzothiazol-2-yl)acetamide] were, in that order, 1210 nM, 181 nM and 836 nM.
The like results for `CC(=O)Nc1nc2ccc(-c3ccnc(N(C)S(=O)(=O)c4ccccc4)n3)cc2s1` [Example 91, N-(6-(2-(methyl(phenylsulfonyl)amino)-4-pyrimidinyl)-1,3-benzothiazol-2-yl)acetamide] were, in that order, 310 nM, 181 nM and 237 nM.
Regarding `CC(=O)Nc1nc2ccc(-c3cncc(NS(=O)(=O)c4ccc(Cl)c(Cl)c4)c3)cc2s1` [Example 200, N-(6-(5-(3,4-dichlorophenylsulfonamido)pyridin-3-yl)benzo[d]thiazol-2-yl)acetamide], the concentration for half-maximal inhibition (IC50) in assay [1] (setting [4]) amounted to 35.7 nM; in assay [2], 5.6 nM; in assay [3], 9.8 nM.
The like results for `CC(=O)Nc1nc2ccc(-c3cccc(NS(=O)(=O)c4ccccc4F)n3)cc2s1` [Example 73, N-(6-(6-(2-Fluorophenylsulfonamido)pyridin-2-yl)benzo[d]thiazol-2-yl)acetamide] were, in that order, 320 nM, 60.6 nM and 149 nM.
For `CCCS(=O)(=O)Nc1cc(-c2ccc3nc(NC(C)=O)sc3c2)cnc1Cl` [Example 177, N-(6-(6-chloro-5-(propylsulfonamido)pyridin-3-yl)benzo[d]thiazol-2-yl)acetamide], the half-inhibitory concentration (IC50) was 36.3 nM in assay [1] (setting [4]), 15.4 nM in assay [2] and 34.9 nM in assay [3].
The like results for `CC(=O)Nc1nc2ccc(-c3cnc(Cl)c(NS(=O)(=O)c4ccc(C(C)(C)O)cc4)c3)cc2s1` [Example 161, N-(6-(6-chloro-5-(4-(2-hydroxypropan-2-yl)phenylsulfonamido)pyridin-3-yl)benzo[d]thiazol-2-yl)acetamide] were, in that order, 4.1 nM, 13.7 nM and 44.6 nM.
For `CC(=O)Nc1nc2ccc(-c3cncc(NS(=O)(=O)c4ccccc4)c3)cc2s1` [Example 202, N-(6-(5-(phenylsulfonamido)pyridin-3-yl)benzo[d]thiazol-2-yl)acetamide] the same measures were 271 nM, 5.6 nM and 31.7 nM.
The like results for `COc1ccc(-c2ccc3nc(NC(C)=O)sc3c2)cn1` [Example 242, N-(6-(6-methoxypyridin-3-yl)benzo[d]thiazol-2-yl)acetamide] were, in that order, 636 nM, 73.9 nM and > 40000 nM.
Regarding `CC(=O)Nc1nc2ccc(-c3cccc(NS(=O)(=O)c4ccc(C)cc4)c3)nc2s1` [Example 136, N-(5-(3-(4-methylphenylsulfonamido)phenyl)thiazolo[5,4-b]pyridin-2-yl)acetamide], the IC50 in assay [1] (setting [4]) is 172 nM; in assay [2], 58.6 nM; in assay [3], 199 nM.
For `COc1ccc(S(=O)(=O)c2cccc(-c3ccc4nc(NC(C)=O)sc4c3)n2)cc1` [Example 68, N-(6-(6-(4-Methoxyphenylsulfonyl)pyridin-2-yl)benzo[d]thiazol-2-yl)acetamide] the same measures were 664 nM, 86.5 nM and 676 nM.
In the case of `CC(=O)Nc1nc2ccc(-c3ccnc(N(C)S(=O)(=O)c4cccs4)n3)cc2s1` [Example 206, N-(6-(2-(N-methylthiophene-2-sulfonamido)pyrimidin-4-yl)benzo[d]thiazol-2-yl)acetamide], the half-inhibitory concentration (IC50) in assay [1] (setting [4]) was 381 nM; in assay [2], 177 nM; in assay [3], 194 nM.
The like results for `CC(=O)Nc1nc2ccc(-c3cncc(N(C)S(=O)(=O)c4ccc(Cl)c(Cl)c4)c3)cc2s1` [Example 221, N-(6-(5-(3,4-dichloro-N-methylphenylsulfonamido)pyridin-3-yl)benzo[d]thiazol-2-yl)acetamide] were, in that order, 320 nM, 79.2 nM and 2100 nM.
For `CC(=O)Nc1nc2ccc(-c3ccnc(OCc4ccc(C)cc4)n3)cc2s1` [Example 106, N-(6-(2-((4-methylbenzyl)oxy)-4-pyrimidinyl)-1,3-benzothiazol-2-yl)acetamide] the same measures were 2530 nM, 220 nM and 1240 nM.
In the case of `COc1ccc(S(=O)(=O)Nc2cc(-c3ccc4nc(NC(C)=O)sc4c3)cnc2C#N)cc1` [Example 267, N-(6-(6-cyano-5-(4-methoxyphenylsulfonamido)pyridin-3-yl)benzo[d]thiazol-2-yl)acetamide], the IC50 turned out to be 1430 nM in assay [1] (setting [4]), 14.5 nM in assay [2] and 20.9 nM in assay [3].
For `COc1ccc(Sc2nccc(-c3ccc4nc(NC(C)=O)sc4c3)n2)cc1` [Example 16, N-(6-(2-(4-Methoxyphenylthio)pyrimidin-4-yl)benzo[d]thiazol-2-yl)acetamide] the same measures were 825 nM, 53.5 nM and 106 nM.
For `CC(=O)Nc1nc2ccc(-c3cccc(S(=O)(=O)c4ccc(F)cc4)n3)cc2s1` [Example 66, N-(6-(6-(4-Fluorophenylsulfonyl)pyridin-2-yl)benzo[d]thiazol-2-yl)acetamide] the same measures were 2020 nM, 258 nM and 5610 nM.
The like results for `Nc1nc2ccc(-c3cnc(Cl)c(NS(=O)(=O)c4ccc(F)cc4F)c3)cc2s1` [Example 311, N-(5-(2-amino-1,3-benzothiazol-6-yl)-2-chloro-3-pyridinyl)-2,4-difluorobenzenesulfonamide] were, in that order, 222 nM, 17.1 nM and 49.1 nM.
As to `CC(=O)Nc1nc2ccc(-c3ccnc(OCCCn4ccnn4)n3)cc2s1` [Example 20, N-(6-(2-(3-(1H-1,2,3-triazol-1-yl)propoxy)-4-pyrimidinyl)-1,3-benzothiazol-2-yl)acetamide], the 50% inhibitory concentration (IC50) was 1930 nM in assay [1] (setting [4]), 266 nM in assay [2] and 5240 nM in assay [3].
For `CC(=O)Nc1nc2ccc(-c3cncc(NS(=O)(=O)c4ccc(C)cc4)c3)cc2s1` [Example 194, N-(6-(5-(4-methylphenylsulfonamido)pyridin-3-yl)benzo[d]thiazol-2-yl)acetamide] the same measures were 27.6 nM, 9.8 nM and 25.5 nM.
On to `CC(=O)Nc1nc2ccc(-c3ccnc(OCc4ccc5ncccc5c4)n3)cc2s1` [Example 22, N-(6-(2-(6-quinolinylmethoxy)-4-pyrimidinyl)-1,3-benzothiazol-2-yl)acetamide], for which the results for the half-maximal inhibitory concentration (IC50) in assay [1] (setting [4]), in assay [2] and in assay [3] were > 40000 nM, 124 nM and > 40000 nM, respectively.
On to `CC(=O)Nc1nc2ccc(-c3cccc(N(C)S(=O)(=O)c4ccccc4)n3)cc2s1` [Example 75, N-(6-(6-(methyl(phenylsulfonyl)amino)-2-pyridinyl)-1,3-benzothiazol-2-yl)acetamide], for which the IC50 in assay [1] (setting [4]) was found to be 221 nM; in assay [2] it was 82.5 nM; in assay [3] it was 338 nM.
For `CC(=O)Nc1nc2ccc(-c3ccnc(OCc4ccncc4)n3)cc2s1` [Example 17, N-(6-(2-(4-pyridinylmethoxy)-4-pyrimidinyl)-1,3-benzothiazol-2-yl)acetamide] the same measures were 1060 nM, 523 nM and 11100 nM.

Usually IC50 stands for the concentration that inhibits the measured activity by half.
